{"source": "paper PMC12794078", "about": "“Real-Time Binding Kinetics of Small Molecules to CA IX in Live Suspension Cells Using SPR Microscopy” (ACS Medicinal Chemistry Letters, 2025)", "key": {"[1]": {"target": "CA IX on live Ramos B cells (Homo sapiens, UniProt Q16790)", "experiment": "SPRM kinetic titration of small molecules on live Ramos B suspension cells (1:1 kinetic model, 600 ROIs)", "procedure": "All cells were maintained in an incubator at 37 °C with 5% CO2 before seeding. For every experiment, cell viability was determined with Trypan blue using a TC20 cell counter (BioRad). PLL precoated SPRM sensor chips were prepared according to manufacturer’s protocol (Gibco, cat. # A3890401). 5K Ramos B cells at 99% viability were gently seeded onto PLL precoated SPRM sensor chips containing 600 μL of Mccoy medium 5A supplemented with 10% FBS and then incubated at 37 °C with 5% CO2. After 72 h of incubation, cells were washed with live cell imaging buffer (A59688DJ) twice and immediately followed by SPRM analysis. […] All experiments were performed with a commercially available Ramos B cell line.\nSPRM is highly sensitive to ligand binding events on the cell membrane, which induces dielectric changes that are recorded as sensorgrams. Moreover, its high-resolution diffraction limited optics produces sensorgrams of subcellular response regions, enabling detailed evaluation of binding heterogeneity.\nHigh resolution SPRM measurements were generated by uniformly segmenting the sensing area (600 μm × 450 μm area) into a virtual grid of 600 regions of interest (ROI). For every ROI, a 1:1 kinetic binding interaction model was applied. Bare area ROIs were subtracted as references from the cell area ROIs. The SPRM kinetic analysis results of all ROIs were aggregated for statistical analysis. ImageSPR software (Biosensing Instrument Inc., Tempe AZ) was used to generate the sensorgrams, fitting, and statistical analysis of binding interactions. ROIs that detected a response which fitted well to the kinetic interaction model were collectively plotted onto an isoaffinity scatter plot for statistical analysis of the binding heterogeneity (Figure ). Histograms extracted from the isoaffinity scatter plot were fit with Gaussian distributions to obtain mean values and standard deviations for the association rate (k a), dissociation rate (k d), and equilibrium dissociation constant (KD). Subsequently, those ROIs that observe binding responses were highlighted in red and overlaid onto the SPRM image to more clearly evaluate the extent of cell-specific and nonspecific binding."}, "CA II": {"target": "CA II", "settings": "ex vitro purified CA II, published values; reference number not given; read-out: Reported values CA II; cited from earlier work"}, "[2]": {"settings": "association rate, membrane-bound CA IX, live Ramos B cells"}, "[3]": {"settings": "dissociation rate, membrane-bound CA IX, live Ramos B cells"}}, "note": "Where two headings read alike, the source gives them in different places.", "data": [{"smiles": "NS(=O)(=O)c1ccc(C(=O)O)cc1", "note": "[4-CBS, 4-Carboxybenzenesulfonamide]", "values": [{"measurement": "Kd", "setting": "[1]; Batch 1", "value": 0.87, "unit": "µM"}, {"measurement": "Kd", "setting": "[1]; Batch 2", "value": 1, "unit": "µM"}, {"measurement": "Kd", "setting": "[1]; Batch 3", "value": 0.78, "unit": "µM"}, {"measurement": "Kd", "setting": "[1]; SPRM results for CA IX", "value": 0.87, "unit": "µM"}]}, {"smiles": "CN(C)c1cccc2c(S(N)(=O)=O)cccc12", "note": "[Dansylamide]", "values": [{"measurement": "Kd", "setting": "CA II", "value": 0.76, "unit": "µM"}, {"measurement": "Kd", "setting": "[1]; Batch 1, live Ramos B cells, experiment/batch 1", "value": 0.586, "unit": "µM"}, {"measurement": "Kd", "setting": "[1]; Batch 2, live Ramos B cells, experiment/batch 2", "value": 0.542, "unit": "µM"}, {"measurement": "Kd", "setting": "[1]; Batch 3, live Ramos B cells, experiment/batch 3", "value": 0.534, "unit": "µM"}, {"measurement": "Kd", "setting": "[1]; SPRM results for CA IX, membrane-bound CA IX, live Ramos B cells, Gaussian mean over ROIs", "value": 0.586, "unit": "µM"}, {"measurement": "k a, SPRM results for CA IX", "setting": "[1]; [2]", "value": "2.53 × 10^03 M^–1 s^–1"}, {"measurement": "kd, SPRM results for CA IX", "setting": "[1]; [3]", "value": "2.34 × 10^–03 s^–1"}]}, {"smiles": "NS(=O)(=O)c1cc(C(=O)O)c(NCc2ccco2)cc1Cl", "note": "[Furosemide]", "values": [{"measurement": "k a, SPRM results for CA IX", "setting": "[1]; [2]", "value": "1.10 × 10^03 M^–1 s^–1"}, {"measurement": "kd, SPRM results for CA IX", "setting": "[1]; [3]", "value": "1.16 × 10^–03 s^–1"}]}, {"smiles": "Nc1ccc(S(N)(=O)=O)cc1", "note": "[Sulfanilamide]", "values": [{"measurement": "k a, SPRM results for CA IX", "setting": "[1]", "value": "4.40 × 10^03 M^–1 s^–1"}, {"measurement": "kd, SPRM results for CA IX", "setting": "[1]", "value": "1.39 × 10^–03 s^–1"}]}]}
